Data from ChEMBL document CHEMBL5321282, “Design, Synthesis, and Biological Evaluation of Esculetin-Furoxan-DEAC Ternary Hybrids for Anti-Triple Negative Breast Cancer” (J Med Chem, 2023).
Active and inactive are the calls of the source. No cut-off for these calls is given here.

Experiments:
A549 = test: Antiproliferative activity against human A549 cells assessed as inhibition of cell growth measured after 48 hrs by MTT assay; format: functional, cell-based; conditions: A549, 48 h
MCF7 = test: Antiproliferative activity against human MCF7 cells assessed as inhibition of cell growth measured after 48 hrs by MTT assay; format: functional, cell-based; conditions: MCF7, 48 h
MDA-MB-231 [1] = test: Antiproliferative activity against human MDA-MB-231 cells assessed as inhibition of cell growth measured after 48 hrs by MTT assay; format: functional, cell-based; conditions: MDA-MB-231, 48 h
HCT-116 = test: Antiproliferative activity against human HCT-116 cells assessed as inhibition of cell growth measured after 48 hrs by MTT assay; format: functional, cell-based; conditions: HCT-116, 48 h
MDA-MB-231 [2] = test: Antiproliferative activity against human MDA-MB-231 cells assessed as inhibition of cell growth measured after 48 hrs in presence of 3,4-bis(phenylsulfonyl)-1,2,5-oxadiazole 2-oxide by MTT assay; format: functional, cell-based; conditions: MDA-MB-231, 48 h
[3] = Cytotoxicity against human L02 cells assessed as inhibition in cell growth measured after 48 hrs by MTT assay; format: toxicity, cell-based
[4] = Toxicity in BALB/C mouse xenografted with human MDA-MB-231 cells assessed as change in body weight at 2.5 mg/kg, ip administered every 2 days measured after 3 weeks; format: organism-based; conditions: in vivo, 504 h
[5] = Cytotoxicity against human MCF-10A cells assessed as inhibition in cell growth measured after 48 hrs by MTT assay; format: toxicity, cell-based
MDA-MB-231 [6] = test: Induction of apoptosis in human MDA-MB-231 cells assessed as increase in CypD level incubated for 8 hrs by Western blotting analysis; format: functional, cell-based; conditions: dose 5-20 nM
MDA-MB-231 [7] = test: Induction of apoptosis in human MDA-MB-231 cells assessed as effect on ANT level at 20 nM incubated for 8 hrs by Western blotting analysis; format: functional, cell-based
[8] = Selectivity index, ratio of IC50 for cytotoxicity against human L02 cells to IC50 for antiproliferative activity against human MDA-MB-231 cells; format: toxicity, cell-based; conditions: L02 cells versus MDA-MB-231 cells, read-out: Ratio IC50
[9] = Selectivity index, ratio of IC50 for cytotoxicity against human MCF-10A cells to IC50 for antiproliferative activity against human MDA-MB-231 cells; format: toxicity, cell-based; conditions: MCF-10A cells versus MDA-MB-231 cells, read-out: Ratio IC50
MDA-MB-231 [10] = test: Antiproliferative activity against human MDA-MB-231 cells assessed as effect on NO level at 25 uM incubated for 2 hrs; format: functional, cell-based
MDA-MB-231 [11] = test: Antiproliferative activity against human MDA-MB-231 cells assessed as inhibition of cell growth measured after 48 hrs in presence of 7-(diethylamino)-2-oxo-2H-chromene-3-carboxylic acid by MTT assay; format: functional, cell-based; conditions: MDA-MB-231, 48 h

Structure (SMILES)	IC50 (A549) [nM]	IC50 (MCF7) [nM]	IC50 (MDA-MB-231 [1]) [nM]	IC50 (HCT-116) [nM]	other results
CCN(CC)c1ccc2cc(C(=O)OCCCOc3cc4ccc(=O)oc4cc3OCCCCCCOc3no[n+]([O-])c3S(=O)(=O)c3ccccc3)c(=O)oc2c1	2260	1060	53	3260	–
O=c1ccc2cc(OCCCCCCOc3no[n+]([O-])c3S(=O)(=O)c3ccccc3)c(OCCCCCCOc3no[n+]([O-])c3S(=O)(=O)c3ccccc3)cc2o1	3050	10400	148	2410	–
O=c1ccc2cc(O)c(OCCCOc3no[n+]([O-])c3S(=O)(=O)c3ccccc3)cc2o1	12100	11300	2160	5970	–
O=c1ccc2cc(O)c(OCCCCOc3no[n+]([O-])c3S(=O)(=O)c3ccccc3)cc2o1	11800	8710	1990	5020	–
CCN(CC)c1ccc2cc(C(=O)OCCCCOc3cc4ccc(=O)oc4cc3OCCCCCCOc3no[n+]([O-])c3S(=O)(=O)c3ccccc3)c(=O)oc2c1	1610	2440	53	3750	–
O=c1ccc2cc(O)c(O)cc2o1 [ESCULETIN]	> 50000	> 50000	> 50000	> 50000	IC50 (MDA-MB-231 [2]): 7470 nM
COc1cccc2c1C(=O)c1c(O)c3c(c(O)c1C2=O)C[C@@](O)(C(=O)CO)C[C@@H]3O[C@H]1C[C@H](N)[C@H](O)[C@H](C)O1 [DOXORUBICIN]	–	740	–	150	IC50 at 48 h [3]: 600 nM; Activity [4]: Non-Toxic; IC50 at 48 h [5]: 740 nM
O=S(=O)(c1ccccc1)c1no[n+]([O-])c1S(=O)(=O)c1ccccc1	–	–	7910	–	–
O=c1ccc2cc(OCCCOc3no[n+]([O-])c3S(=O)(=O)c3ccccc3)c(OCCCOc3no[n+]([O-])c3S(=O)(=O)c3ccccc3)cc2o1	1960	2330	58	1120	–
CCN(CC)c1ccc2cc(C(=O)OCCCCCCOc3no[n+]([O-])c3S(=O)(=O)c3ccccc3)c(=O)oc2c1	–	–	–	–	Activity (MDA-MB-231 [6]): inactive; Activity (MDA-MB-231 [7]): inactive
CCN(CC)c1ccc2cc(C(=O)OCCCCCCOc3cc4ccc(=O)oc4cc3OCCCCCCOc3no[n+]([O-])c3S(=O)(=O)c3ccccc3)c(=O)oc2c1	4430	2990	108	9140	–
O=c1ccc2cc(OCCCCOc3no[n+]([O-])c3S(=O)(=O)c3ccccc3)c(OCCCCOc3no[n+]([O-])c3S(=O)(=O)c3ccccc3)cc2o1	1210	3700	42	2030	selectivity ratio [8]: 134; IC50 at 48 h [3]: 5640 nM; selectivity ratio [9]: 153; Activity (MDA-MB-231 [10]): Active; IC50 at 48 h [5]: 6440 nM
O=c1ccc2cc(O)c(OCCCCCOc3no[n+]([O-])c3S(=O)(=O)c3ccccc3)cc2o1	12800	7940	2160	4280	–
O=c1ccc2cc(OCCCCCOc3no[n+]([O-])c3S(=O)(=O)c3ccccc3)c(OCCCCCOc3no[n+]([O-])c3S(=O)(=O)c3ccccc3)cc2o1	2820	2120	100	3100	–
O=c1ccc2cc(O)c(OCCCCCCOc3no[n+]([O-])c3S(=O)(=O)c3ccccc3)cc2o1	12500	5300	120	2690	selectivity ratio [8]: 47.8; IC50 at 48 h [3]: 5730 nM; selectivity ratio [9]: 394; IC50 (MDA-MB-231 [11]): 130 nM; Activity (MDA-MB-231 [10]): Active; IC50 at 48 h [5]: 12600 nM
